The values below come from PubChem BioAssay AID743341 (Broad Institute, 2014).

Inconclusive results are not listed.

The experiment concerns C2C12 myotubes + simvastatin, MHC imaging tube length, 48 h. Description: suppression of statin-driven myotube degradation – imaging, C2C12 myotubes, MHC immunostaining, dry powder, orthogonal assay for statin myotoxicity suppressor project, confirmation (AID 743341).
`C[C@@H]1CN([C@H](C)CO)C(=O)Cc2cc(NC(=O)C3CCCCC3)ccc2O[C@H]1CN(C)Cc1ccc(Cl)c(Cl)c1`: the AC40 is 7.84 µM.

As for `C[C@H]1CN([C@@H](C)CO)S(=O)(=O)c2ccc(C#Cc3ccc(F)cc3)cc2O[C@@H]1CN(C)S(=O)(=O)c1cn(C)cn1`, the AC40 was 13 µM.

For the molecule `C[C@H](CO)N1C[C@H](C)[C@H](CN(C)Cc2ccc(C(=O)Nc3ccccc3N)cc2)Oc2ccc(NC(=O)Nc3cccc4ccccc34)cc2C1=O`, the AC40 is 5.9 µM.

As to `C[C@@H]1CN([C@H](C)CO)C(=O)c2cccc(NC(=O)Nc3ccc4c(c3)OCO4)c2O[C@H]1CN(C)Cc1ccc(C(=O)Nc2ccccc2N)cc1`, the AC40 was 0.76 µM.

On to `C[C@H]1CN([C@@H](C)CO)C(=O)Cc2cc(NC(=O)CCCCCC(=O)Nc3ccccc3N)ccc2O[C@H]1CN(C)Cc1ccc(C(F)(F)F)cc1`, for which the AC40 is 10.3 µM.

Turning to `C[C@H]1CN([C@@H](C)CO)C(=O)Cc2cc(NC(=O)Nc3cccc4ccccc34)ccc2O[C@H]1CN(C)Cc1ccc(C(=O)Nc2ccccc2N)cc1`, the AC40 is 4.57 µM.

With `C[C@H]1CN([C@@H](C)CO)C(=O)c2cc(N(C)C)ccc2O[C@@H]1CN(C)Cc1ccc(C(=O)Nc2ccccc2N)cc1`, the AC40 was 1.55 µM.

In the case of `C[C@H]1CN([C@@H](C)CO)C(=O)c2cc(C#Cc3ccncc3)cnc2O[C@@H]1CN(C)CC1CCCC1`, the AC40 is 8.86 µM.

Consider `C[C@@H]1CN([C@@H](C)CO)C(=O)c2cccc(NC(=O)Nc3ccc4c(c3)OCO4)c2O[C@H]1CN(C)Cc1ccc(C(=O)Nc2ccccc2N)cc1`, for which the AC40 was 7.66 µM.

Take `C[C@@H]1CN([C@H](C)CO)C(=O)c2cc(NC(=O)Nc3cccc4ccccc34)ccc2O[C@@H]1CN(C)Cc1ccc(C(=O)Nc2ccccc2N)cc1`: the AC40 is 6.47 µM.

For the molecule `C[C@H]1CN([C@@H](C)CO)C(=O)Cc2cc(NC(=O)CCCCCC(=O)Nc3ccccc3N)ccc2O[C@H]1CN(C)Cc1ccc(Oc2ccccc2)cc1`, the AC40 is 3.07 µM.

With `C[C@H](CO)N1C[C@H](C)[C@H](CN(C)Cc2ccc(C(=O)Nc3ccccc3N)cc2)Oc2ccc(N(C)C)cc2C1=O`, the AC40 is 0.581 µM.

On to `C[C@H](CO)N1C[C@H](C)[C@@H](CN(C)Cc2ccc(C(=O)Nc3ccccc3N)cc2)Oc2ccc(NC(=O)Cc3cn(C)c4ccccc34)cc2C1=O`, for which the AC40 is 10.2 µM.

Regarding `C[C@@H]1CN([C@@H](C)CO)C(=O)c2cc(NC(=O)Cc3cn(C)c4ccccc34)ccc2O[C@@H]1CN(C)Cc1ccc(C(=O)Nc2ccccc2N)cc1`, the AC40 is 10.5 µM.
